# Test results reported in article PMC3904413, “Allosteric modulation of GABAA receptors by extracellular ATP” (Molecular Brain, 2014).
# Tested on: T1, GABAARs (native, cultured hippocampal neurons)
# T1 construct: gene Gabra1
# Settings: GABA 100 μM by pressure ejection, -60 mV; allosteric potentiator; error ± 0.3 in Figure 1 legend
compound,measurement,value
Nc1ncnc2c1ncn2[C@@H]1O[C@H](COP(=O)(O)OP(=O)(O)OP(=O)(O)O)[C@@H](O)[C@H]1O [ATP],EC50,2.1 ± 0.2 mM
